# Source: article PMC4971421, “Redox-Dependent Modulation of T-Type Ca^2+ Channels in Sensory Neurons Contributes to Acute Anti-Nociceptive Effect of Substance P” (Antioxidants & Redox Signaling, 2016)
# Read-outs that look alike come from different tables or passages of the source.
# Assays:
# [1] = system: T-type Ca^2+ channels (LVA Ca^2+ current) in DRG neurons; assay: LVA (T-type) Ca2+ current, whole-cell patch clamp, cultured small-diameter DRG neurons; format: cell-based, rat; details: for effect on S9SP-mediated T-type current inhibition: 1 μM S9SP
# Description: (§1) DRG neurons from adult male Sprague–Dawley rats (170–180 g) were dissociated as previously described ([13], [29]) and cultured in DMEM supplemented with GlutaMax I, 10% fetal calf serum, penicillin (50 U/ml), and streptomycin (50 μg/ml) on glass coverslips that were coated with poly-D-lysine for 2–5 days in a humidified incubator (37°C, 5% CO2). No growth factors were added to the culture media. HEK 293 cells were cultured in the same DMEM media; cells were passaged every 2 days. Human NK1 receptor (GenBank accession No. AY462098) complementary DNA (cDNA) was from the Missouri Science and Technology cDNA Resource Center. WtCaV3.1 (GenBank accession No. AF027984), wtCaV3.2 (GenBank accession No. AF051946), CaV3.1Q172H, and CaV3.2H191Q were kindly provided by Dr E. Perez-Reyes (University of Virginia). HEK293 cells were transfected using Lipofectamine 2000 (Invitrogen) according to the manufacturer's instructions. ST101 was synthesized in house; Z944 was from Toronto Research Chemicals; PTX was from Enzo Life Science; and FluoZin-3AM was from Life Technologies. All other chemicals were from Sigma.
# All recordings were made using Multiclamp 700B amplifier in combination with pCLAMP 10.4 software (Molecular Devices). Voltage-clamp recordings from DRG neurons were made using whole-cell patch clamp. The standard bath solution contained the following (in mM): 150 TEA-Cl; 2.5 CsCl; 2.5 CaCl2; 10 HEPES; 0.5 MgCl2; and 10 glucose (pH 7.4 adjusted with CsOH). The standard pipette solution contained the following (in mM): 110 CsCl; 3 MgCl2; 10 EGTA; 10 HEPES; 3 Mg-ATP; and 0.6 GTP (pH 7.4 adjusted with CsOH). The access resistance was typically within 4–8 MΩ. T-type calcium currents (LVA) were measured by 50 ms square voltage pulses to −40 mV from a holding potential of −90 mV. HVA currents were measured by 200 ms square voltage pulses to 0 mV from a holding potential of −90 mV.
# where y is the current inhibition; A1 and A2 are the maximum and minimum effects, respectively; x is the S9SP concentration; and nH is the Hill coefficient.
# [2] = system: intracellular zinc levels in DRG neurons; assay: Intracellular zinc imaging with FluoZin-3AM; format: cell-based, rat; details: for effect on zinc levels elevated by ZnPy: in the presence of 10 μM ZnPy
# Description: Changes in the intracellular zinc levels were evaluated using fluorescence imaging. DRG cultures were loaded with FluoZin-3AM (5 μM for 30 min at 37°C in the presence of 0.02% pluronic F-127). Cells were washed with extracellular bath solution composed of the following (in mM): 160 NaCl; 2.5 KCl; 2 CaCl2; 1 MgCl2; and 10 HEPES (pH 7.4 adjusted with NaOH); they were imaged using a Leica SP5 fluorescence imaging system assembled on a Leica DMI6000 microscope and illuminated with 488 nm light for 1200 ms (400 Hz) with a 2 s interval. Solutions were applied using a gravity perfusion system.
# CaV3.2 = target: T1, CaV3.2 (Homo sapiens, UniProt O95180); assay: Recombinant CaV3.2 current in HEK293 cells co-transfected with NK1 receptor, perforated patch; format: cell-based
# T1 construct: expressed in transfected cells; host or cells: HEK293 cells, transient transfection with Lipofectamine 2000; The CaV3.2 cDNA was a gift of Dr E. Perez-Reyes; The NK1 cDNA was from the Missouri S&T cDNA Resource Center
# T1 sequence (O95180 whole entry): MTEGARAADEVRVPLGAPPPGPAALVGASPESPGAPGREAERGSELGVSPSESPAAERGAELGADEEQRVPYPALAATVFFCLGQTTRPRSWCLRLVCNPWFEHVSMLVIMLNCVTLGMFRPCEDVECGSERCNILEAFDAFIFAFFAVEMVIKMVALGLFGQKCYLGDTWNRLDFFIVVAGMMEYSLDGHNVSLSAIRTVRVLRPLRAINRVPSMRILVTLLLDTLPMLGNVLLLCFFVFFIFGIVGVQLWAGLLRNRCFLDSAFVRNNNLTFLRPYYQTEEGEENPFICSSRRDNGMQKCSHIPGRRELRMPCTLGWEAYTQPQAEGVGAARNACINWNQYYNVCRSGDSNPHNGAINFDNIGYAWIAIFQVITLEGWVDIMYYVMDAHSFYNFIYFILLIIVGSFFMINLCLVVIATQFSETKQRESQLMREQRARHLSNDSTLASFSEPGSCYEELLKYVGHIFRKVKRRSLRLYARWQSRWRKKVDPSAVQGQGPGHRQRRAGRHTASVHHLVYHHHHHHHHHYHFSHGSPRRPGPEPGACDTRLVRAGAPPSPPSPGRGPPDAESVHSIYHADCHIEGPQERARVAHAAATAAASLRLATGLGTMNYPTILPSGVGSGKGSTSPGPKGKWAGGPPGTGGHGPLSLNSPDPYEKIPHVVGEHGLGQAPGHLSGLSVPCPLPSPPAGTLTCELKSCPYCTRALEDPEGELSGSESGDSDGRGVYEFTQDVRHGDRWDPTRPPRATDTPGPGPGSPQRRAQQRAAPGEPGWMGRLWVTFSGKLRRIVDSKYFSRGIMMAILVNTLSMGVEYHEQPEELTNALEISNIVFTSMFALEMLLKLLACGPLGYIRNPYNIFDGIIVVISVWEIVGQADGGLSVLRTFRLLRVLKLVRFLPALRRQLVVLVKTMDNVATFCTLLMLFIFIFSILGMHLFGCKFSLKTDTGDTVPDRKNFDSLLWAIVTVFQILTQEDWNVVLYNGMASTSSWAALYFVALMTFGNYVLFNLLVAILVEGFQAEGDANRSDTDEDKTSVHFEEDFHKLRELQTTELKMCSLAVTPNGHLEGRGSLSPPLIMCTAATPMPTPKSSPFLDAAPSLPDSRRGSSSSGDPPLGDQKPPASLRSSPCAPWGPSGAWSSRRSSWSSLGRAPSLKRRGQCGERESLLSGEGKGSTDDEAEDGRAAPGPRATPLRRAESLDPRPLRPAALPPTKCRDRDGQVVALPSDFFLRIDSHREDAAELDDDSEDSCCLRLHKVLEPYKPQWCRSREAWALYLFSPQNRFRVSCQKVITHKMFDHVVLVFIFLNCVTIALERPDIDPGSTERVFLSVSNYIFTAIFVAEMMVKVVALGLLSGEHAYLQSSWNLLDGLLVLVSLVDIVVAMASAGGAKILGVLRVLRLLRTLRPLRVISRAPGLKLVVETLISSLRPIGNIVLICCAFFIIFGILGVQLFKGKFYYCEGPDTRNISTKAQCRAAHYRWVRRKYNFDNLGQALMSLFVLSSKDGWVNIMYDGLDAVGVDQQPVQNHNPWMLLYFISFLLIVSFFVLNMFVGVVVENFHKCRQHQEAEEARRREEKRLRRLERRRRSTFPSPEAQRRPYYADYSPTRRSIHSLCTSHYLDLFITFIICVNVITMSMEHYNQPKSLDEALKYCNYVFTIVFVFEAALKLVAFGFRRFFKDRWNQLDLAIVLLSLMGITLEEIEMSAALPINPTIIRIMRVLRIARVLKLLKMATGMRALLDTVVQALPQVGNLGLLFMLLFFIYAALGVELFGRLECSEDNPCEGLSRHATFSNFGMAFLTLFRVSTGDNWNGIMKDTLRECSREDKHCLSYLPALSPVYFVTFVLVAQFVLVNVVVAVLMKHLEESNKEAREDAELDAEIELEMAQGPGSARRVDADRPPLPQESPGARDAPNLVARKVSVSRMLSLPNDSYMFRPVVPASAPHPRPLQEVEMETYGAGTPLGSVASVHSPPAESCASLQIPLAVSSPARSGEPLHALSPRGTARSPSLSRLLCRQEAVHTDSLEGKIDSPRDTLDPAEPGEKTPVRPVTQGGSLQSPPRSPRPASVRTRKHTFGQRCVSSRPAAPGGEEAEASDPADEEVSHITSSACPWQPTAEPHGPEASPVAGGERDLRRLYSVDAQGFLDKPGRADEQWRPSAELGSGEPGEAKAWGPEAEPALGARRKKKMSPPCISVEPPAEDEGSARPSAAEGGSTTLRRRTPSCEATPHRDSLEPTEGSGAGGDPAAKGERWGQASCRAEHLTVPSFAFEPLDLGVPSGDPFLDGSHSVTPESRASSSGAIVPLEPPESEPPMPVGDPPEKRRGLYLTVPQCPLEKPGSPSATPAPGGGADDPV
# Description: as §1
# In recordings from HEK 293 cells, amphotericin B-perforated patch-clamp technique was used ([13]). The pipette solution contained the following (in mM): 155 CsCl; 10 HEPES; 1 EGTA; and 4 MgCl2 supplemented with amphotericin B (250 μg/ml), pH 7.4 adjusted with CsOH. The bath solution was the same as for DRG neuron recordings. The access resistance was typically within 8–12 MΩ.
# In experiments with H2O2, 3% agar-salt (3 M KCl) bridges were used. Concentration dependence of CaV3.2 channel inhibition by zinc was fit to the two-component logistic function:
# where N0 is the total amount of zinc-binding sites, N0(max1) is the amount of high-affinity binding sites, N0(max2) is the amount of low-affinity binding sites, Imax is the maximal CaV3.2 peak current amplitude, IC50 is the [Zn^2+] necessary for half-maximal inhibition, and nH is the Hill coefficient. The concentration dependency of the S9SP effect was fit to the one-component logistic function: […]
# rat hind paw [3] = assay: BK-induced nocifensive behavior, pre-injection protocol; format: in vivo; details: pre-injection 50 μl; 1–10 nmol/site, 5 min before BK 10 nmol/site
# Description: Sprague–Dawley rats (body weight, 170–180 g) were grouped randomly and allowed to acclimate for at least 30 min in a transparent observation chamber before the experiment. Animals received a 50-μl intraplantar injection of ST101 (0.001–10 nmol/site), BK (10 nmol/site), RTG (1–10 nmol/site), Z944 (0.05–5 nmol/site), SP (0.5–5 nmol/site), or saline, respectively, into the right hind paw. For evaluation of the acute “spontaneous” pain, animals were video-recorded for 30 min after the injection and protective (“nocifensive”) behavior was analyzed as time spent licking, biting, lifting, and flinching the injected paw. The analyses were performed by an observer who was unaware of treatment allocations. In the pre-injection experiments, the right hind paw of the animal received a pre-injection of 50 μl Z944 (0.05–0.5 nmol/site), RTG (1–10 nmol/site), SP (0.5 nmol/site), Z944 (0.05–0.5 nmol/site)+RTG (1 nmol/site), or saline; 5 min later, on the same paw, the animal received a further 50-μl injection of BK (10 nmol/site) together with the pre-injection drug mix. Nocifensive behavior was analyzed as described earlier.
# The in vivo CaV3.2 knock-down was performed as described earlier ([3]) by using the same ODN sequences that were synthesized by SBS Genetech. AS ODNs had the following sequence: […]. The mismatch ODNs of the following sequence were used as a negative control: […]. The mismatch ODN was not complementary to any known nucleotide sequence. ODNs were reconstituted in saline before injection. ODNs (12.5 μg/rat in 10 μl of saline) or saline were injected intrathecally (i.t.) between the L5 and L6 dorsal spinous processes as described earlier ([3], [42]) under isoflurane anesthesia. The treatment was repeated twice daily for 4 days. The pain tests were performed on the next day after the last injection. After behavioral testing, animals were humanly sacrificed; lumbar DRGs were extracted and analyzed for the knock-down efficiency by comparing the Cacna1h mRNA levels in lumbar (L4 to L6) DRGs of the saline-injected, mismatch ODN-injected, and AS ODN-injected animals using RT-PCR. The same Cacna1h and Gapdh primers as in siRNA experiments were used for RT-PCR.
# rat hind paw [4] = assay: Hargreaves test, paw withdrawal latency to noxious heat; format: in vivo; details: hind-paw injection 50 μl; 0.1–10 nmol/site; 8 min after injection
# Description: For measurement of thermal hyperalgesia, the change in the latency of hind-paw withdrawal in response to noxious heat was recorded using the Hargreaves’ plantar method (Ugo Basile) at 8 min after the hind-paw injection of drugs; the heat source was set to 25% of the maximal intensity.
molecule,measurement,setting,value
"O[C@@H](CS)[C@@H](O)CS (racemic) [DTT, dithiothreitol]",effect on LVA current amplitude on its own,[1]; 1 mM,did not significantly affect
same,prevention of S9SP effect on LVA current when applied together,[1]; 1 mM DTT before and during 1 μM S9SP,rendered S9SP ineffective
same,reversal of S9SP-induced LVA current inhibition,[1]; 1 mM DTT in continued presence of 1 μM S9SP,completely reversed
same,reversal of antimycin A-induced LVA current inhibition,"[1]; 1 mM DTT, 1 μM antimycin A",completely reversed
same,reversal of H2O2-induced LVA current inhibition,"[1]; 1 mM DTT, 300 μM H2O2",reversed
same,effect on zinc levels elevated by ZnPy,[2]; 1 mM,did not alter the elevated zinc levels
"CN(C)CCCn1cc(C2=C(c3c[nH]c4ccccc34)C(=O)NC2=O)c2ccccc21 [BIM I, bisindolylmaleimide I]",effect on S9SP-mediated T-type current inhibition,"[1]; 200 nM, 20 min pretreatment",without a significant effect
"COc1ccccc1CN[C@H]1CCCN[C@H]1c1ccccc1.Cl.Cl [CP-99994, (2S,3S)-3-(2-Methoxybenzylamino)-2-phenylpiperidine dihydrochloride]",effect on S9SP-induced LVA current inhibition,"[1]; 3 μM, 30 min pre-incubation, co-applied with 1 μM S9SP",abolished the effect of S9SP
OO [H2O2],effect on recombinant CaV3.2,CaV3.2; H2O2,inhibited
same,inhibition of LVA current,[1]; 300 μM bath application,~20%
"COCC(=O)O[C@]1(CCN(C)CCCc2nc3ccccc3[nH]2)CCc2cc(F)ccc2[C@@H]1C(C)C [MIB, mibefradil]",sensitivity of LVA currents to inhibitor,[1]; 3 μM,sensitive
"CCOC(=O)Nc1ccc(NCc2ccc(F)cc2)cc1N [RTG, retigabine]",BK-induced nociception,rat hind paw [3],significantly attenuated
same,paw withdrawal latency on radiant heat exposure,rat hind paw [4],produced a similar effect
"CSCC[C@H](NC(=O)[C@H](CC(C)C)NC(=O)CN(C)C(=O)[C@H](Cc1ccccc1)NC(=O)[C@H](Cc1ccccc1)NC(=O)[C@H](CCC(N)=O)NC(=O)[C@H](CCC(N)=O)NC(=O)[C@@H]1CCCN1C(=O)[C@H](CCCCN)NC(=O)[C@@H]1CCCN1C(=O)[C@@H](N)CCCNC(=N)N)C(N)=O [S9SP, [Sar^9]-Substance P]","current amplitude in the presence of S9SP, % of basal value","CaV3.2; 1 μM S9SP, wtCaV3.2, mean ± SEM, n = 13, SEM",69.8% ± 6.8%
"c1ccc(CN(CCN(Cc2ccccn2)Cc2ccccn2)Cc2ccccn2)nc1 [TPEN, N,N,N′,N′-Tetrakis(2-pyridylmethyl)ethylenediamine]",effect on SP- and H2O2-induced inhibitions of recombinant CaV3.2,CaV3.2,prevented
same,effect on CaV3.2 currents in control conditions,CaV3.2; 10 μM,only marginal augmentation
same,reversal of S9SP-induced LVA current inhibition,"[1]; 10 μM TPEN bath application, still in the presence of 1 μM S9SP",completely reversed
same,effect on zinc levels elevated by ZnPy,[2]; 20 μM,completely reversed the increase in fluorescence
[Cl-].[Cl-].[Zn+2] [ZnCl2],maximal inhibition at the high-affinity site,CaV3.2; S9SP-treated cells (1 μM),44.1% ± 5.1%
same,IC50,"CaV3.2; after S9SP treatment, 1 μM S9SP in all ZnCl2 solutions, read-out: IC50(1), high-affinity site, zinc inhibition of CaV3.2",0.35 ± 0.25 nM
same,IC50,"CaV3.2; after S9SP treatment, 1 μM S9SP in all ZnCl2 solutions, read-out: IC50(2), low-affinity site, zinc inhibition of CaV3.2",923 ± 582 nM
same,maximal inhibition at the high-affinity site,CaV3.2; control cells,9.9% ± 11.3%
same,IC50,"CaV3.2; control conditions, two-component logistic fit, 6–12 experiments, read-out: IC50(1), high-affinity site, zinc inhibition of CaV3.2",0.25 nM
same,IC50,"CaV3.2; control conditions, two-component logistic fit, 6–12 experiments, read-out: IC50(2), low-affinity site, zinc inhibition of CaV3.2",495 ± 326 nM
same,inhibition of LVA current,"[1]; 750 nM, n = 9",~25%
same,intracellular zinc levels (FluoZin-3 fluorescence),[2]; 1.5 mM,large responses
CCCCCC[C@H]1C(=O)O[C@H](C)[C@H](NC(=O)c2cccc(NC=O)c2O)C(=O)O[C@@H](C)[C@@H]1OC(=O)CC(C)C [antimycin A],inhibition of LVA current,[1]; 1 μM,~25%
"Arg-Pro-Lys-Pro-Gln-Gln-Phe-Phe-Sar-Leu-Met[O2]-NH2 [S9M11SP, [Sar^9, Met(O2)^11]-Substance P]",LVA current inhibition,[1]; 1 μM,quantitatively similar to that of S9SP
pertussis toxin [PTX],effect on S9SP-mediated T-type current inhibition,[1]; 400 ng/ml overnight pre-treatment,completely abolished
